Data on 1 compound can be found in patent US20200215233A1, “ANTIMICROBIAL COATING” (Boulos & Cooper Pharmaceuticals Pty Ltd, priority 2017, published 2020).

What is called MIC is the lowest concentration that inhibits growth of the organism. Low values mean a more susceptible organism, high ones a less susceptible organism.

The test system of series [1] is Pseudomonas aeruginosa (ATCC 27853). As to the kind of experiment: Determination of the minimum inhibitory concentration (P. aeruginosa). It is filed as cell-based. Here is the method: (§1) Three bacterial strains—two Gram-positive bacteria: Staphylococcus aureus (ATCC 29213) (MSSA) and methicillin resistant-S. aureus (MRSA) (ATCC 43300); and a Gram-negative Pseudomonas aeruginosa (ATCC 27853) were used in this study. Bacterial stocks (stored at −80° C. in nutrient broth with 15% glycerol) were streaked onto nutrient agar (Oxoid, Basingstoke, UK) plates for use as the working stock. From the stock an overnight bacterial culture grown in nutrient broth was diluted 1:100 into specific growth media, including tryptic soya broth for S. aureus and Luria-Bertani broth for P. aeruginosa. The final concentration of bacteria was made up to 1×10^5 cfu/mL for the inhibition assays. BCP3 was suspended in respective bacterial media to afford 5 mg/mL suspension. The stock suspension was then twice and ten times diluted to finally obtain concentrations ranging from 8×10^−4-5 mg/mL. Aliquots of 20 μL of each concentration were then added in quadruplicate to wells containing 80 μL of 1×10^5 cfu/mL bacterial solutions in a 96 well plate format for final well concentrations of 1.6×10^−4-1 mg/mL of BCP3. […] After 24 h, 100 μL from each well was transferred into a TOPS 96 well plate (Nunc) and the optical density was measured at 600 nm using a BioTek plate reader. The inhibition of bacterial growth was determined relative to the control (%). […]

For series [2], the system named is methicillin resistant-S. aureus (MRSA) (ATCC 43300). Description: Determination of the minimum inhibitory concentration (MRSA). It is filed as cell-based. Particulars: Staphylococcus aureus, 24 h at 37° C., lowest concentration at which greater than 90% inhibition of bacterial growth was observed. Here is the method: as §1
The next series deals with L929 cells. As to the kind of experiment: Determination of minimal BCP3 cytotoxic concentration (MTS assay). It is filed as cell-based. Here is the method: BCP3 was sterilized via incubation in 80% ethanol in a sterile glass vial for 1 h prior to being vacuum dried at 120° C. for 5 h (0.2 mbar). Subsequently BCP3 was suspended in complete minimum essential medium (MEM, containing 10% (v/v) FBS and 1% (v/v) non-essential amino acids) to afford a 5 mg/mL suspension. The stock suspension was then twice and ten times diluted to finally obtain concentrations ranging from 8×10^−4-5 mg/mL. Aliquots of 20 μL of each concentration were then added in quadruplicate to wells previously seeded with L929 cells containing 80 μL of complete MEM (18,000 cells per well, 16 h) in a 96 well plate format for final well concentrations of 1.6×10^−4-1 mg/mL. Additional controls were added to wells containing pre-seeded cells; medium alone, 5%, and 10% (v/v) dimethylsulfoxide (DMSO, Sigma) in medium. The plate was subsequently incubated for 21 h (37° C., 5% CO2). An 3-(4,5-dimethylthiazol-2-yl)-5(3-carboxymethoxyphenyl)-2-(4-sulfophenyl)-2H-tetrazolium (MTS) assay was then utilized to determine cell viability based on metabolic activity of cells. Stock solutions of 4 mM MTS (Promega) in PBS and 3 mM of phenazine methosulfate (PMS, Sigma) in PBS were used to make up a mixture of MTS and PMS reagent. A working assay reagent solution was made up by addition of 2 mL of MTS and 100 μL of PMS stock solutions per 10 mL of complete medium. Media was removed from the sample and control wells and washed with 120 μL of fresh medium; subsequently 100 μL of the assay reagent solution was added to wells then incubated for 3 h at 37° C., 5% CO2. For colorimetric analysis, plates were read in a BioTek plate reader at wavelengths 490 nm and 655 nm. The difference in readings at the two wavelengths was used to calculate cell attachment compared to controls.
Background: Formazan colour is commonly taken as a measure of viable cells.

A short description of series [3]: Solubility of BCP3 in water and base. It is filed as physicochemical.
Series [4] relates to Staphylococcus aureus (ATCC 29213) (MSSA). As to the kind of experiment: Determination of the minimum inhibitory concentration (MSSA). Particulars: 24 h at 37° C., lowest concentration at which greater than 90% inhibition of bacterial growth was observed. It is filed as cell-based. Here is the method: as §1

Where only a bound is given, the exact number is not on record here.

On to `O=C(O)c1ccc(/C=C/c2cc(/C=C/c3ccc(C(=O)O)cc3)c(/C=C/c3ccc(C(=O)O)cc3)cc2/C=C/c2ccc(C(=O)O)cc2)cc1` [Formula E], for which the MIC in series [1] (Pseudomonas aeruginosa, ATCC27853, P. aeruginosa, 24 h at 37° C., lowest concentration at which greater than 90% inhibition of bacterial growth was observed) is > 1000 mg/L; in series [2], 15.6 mg/L; in series [4], 15.6 mg/L. In addition, in series [1] (at 1 mg/mL BCP3, 24 h), the “maximum inhibition of P. aeruginosa growth” value was 32%. In addition, the “cytotoxicity” value in the series on L929 cells (L929 cells, up to 1 mg/mL) is listed as “non-cytotoxic”. The L929 cell viability is reported as 85% in the series with L929 cells (at 1 mg/mL BCP3, 21 h, compared to TOPS control) and “above 70%” in the series on L929 cells (at all concentrations, 1.6×10^−4-1 mg/mL, 21 h). For the same compound, the “solubility in the presence of bases” value in series [3] (in the presence of bases such as NaOH) was “highly soluble”. For the same compound, the “solubility in water” value in series [3] (water) was “minimally soluble”.
